Assay results from US4638000A, “Condensed seven-membered ring compounds, their production and use” (Takeda Chemical Industries, Ltd., priority 1984, dated 1987).
Structures can show the parent of a compound that is named as a salt.

Legend:
[1] = target: T1, Angiotensin I Converting Enzyme (ACE) (Oryctolagus cuniculus, UniProt P12822); assay: Inhibition of Angiotensin I Converting Enzyme (ACE), HHL substrate, modified Cushman method; format: biochemical; details: compound concentration 0.1 μM; substrate hippuryl-L-histidyl-L-leucine; 37° C., 1 hour; read-out: ACE inhibitory activity (%)
T1 sequence (P12822 34-1310): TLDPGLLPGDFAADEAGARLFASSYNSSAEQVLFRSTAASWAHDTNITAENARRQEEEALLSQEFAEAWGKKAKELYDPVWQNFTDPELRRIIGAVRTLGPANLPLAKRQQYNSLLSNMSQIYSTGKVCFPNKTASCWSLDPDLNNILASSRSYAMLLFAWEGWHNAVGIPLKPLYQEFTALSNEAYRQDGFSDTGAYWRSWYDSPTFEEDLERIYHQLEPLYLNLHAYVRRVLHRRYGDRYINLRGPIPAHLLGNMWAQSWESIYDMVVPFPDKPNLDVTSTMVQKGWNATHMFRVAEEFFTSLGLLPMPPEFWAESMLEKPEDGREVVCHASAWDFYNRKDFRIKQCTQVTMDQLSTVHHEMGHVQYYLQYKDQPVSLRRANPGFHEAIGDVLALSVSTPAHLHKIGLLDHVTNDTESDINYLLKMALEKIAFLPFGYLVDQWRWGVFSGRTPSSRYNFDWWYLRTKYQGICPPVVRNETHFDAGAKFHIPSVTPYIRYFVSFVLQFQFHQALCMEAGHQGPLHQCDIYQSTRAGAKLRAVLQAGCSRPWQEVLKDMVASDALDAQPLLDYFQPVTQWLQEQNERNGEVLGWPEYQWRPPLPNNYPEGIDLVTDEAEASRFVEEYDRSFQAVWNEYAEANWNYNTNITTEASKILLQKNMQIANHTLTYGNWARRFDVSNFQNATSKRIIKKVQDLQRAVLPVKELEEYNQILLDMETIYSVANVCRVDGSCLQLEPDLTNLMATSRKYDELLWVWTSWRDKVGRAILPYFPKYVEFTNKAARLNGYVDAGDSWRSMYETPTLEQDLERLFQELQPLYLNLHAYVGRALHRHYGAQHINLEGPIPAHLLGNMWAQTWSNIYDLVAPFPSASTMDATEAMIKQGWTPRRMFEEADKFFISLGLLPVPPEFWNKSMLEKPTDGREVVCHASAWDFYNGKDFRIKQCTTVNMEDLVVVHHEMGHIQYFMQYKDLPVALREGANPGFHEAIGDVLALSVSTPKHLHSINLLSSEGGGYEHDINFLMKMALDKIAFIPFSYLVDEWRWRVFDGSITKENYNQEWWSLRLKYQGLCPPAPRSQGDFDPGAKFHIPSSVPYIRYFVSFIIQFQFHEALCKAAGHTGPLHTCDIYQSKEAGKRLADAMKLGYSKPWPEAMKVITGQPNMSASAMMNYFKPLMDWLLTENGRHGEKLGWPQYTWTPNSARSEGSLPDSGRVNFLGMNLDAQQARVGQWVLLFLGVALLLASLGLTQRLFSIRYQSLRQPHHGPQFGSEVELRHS
Protocol: The experiment was conducted in accordance with a modification of the method described by Cushman et al. (Biochemical Pharmacology, Vol. 20, pp. 1637, 1971). Thus, using hippuryl-L-histidyl-L-leucine (HHL) as the substrate, the ACE inhibitory activity was determined in terms of percent inhibition on the amount of hippuric acid produced by ACE when the compound of the present invention was added. A solution of the compound of the present invention in 0.02 to 5% dimethylsulfoxide-100 mM borate-HCl buffer solution (pH 8.3, containing 300 mM sodium chloride) was added to 100 μl of ACE (protein concentration, 20 mg/ml) and 100 μl of 1.25 mM HHL. In this experiment, a borate-HCl buffer solution containing dimethylsulfoxide at a concentration equal to that of the test solution was used as a control. After warming the solution at 37° C. for 1 hour, 150 μl of 1N hydrochloric acid was added to the solution to terminate the reaction. After 0.8 ml of ethyl acetate was added, the solution was centrifuged at 11,500 rpm for 2 minutes. A 0.5 ml aliquot was separated from the ethyl acetate layer and dried at a temperature of not more than 40° C. under nitrogen gas streams. The residue was mixed thoroughly with 4.5 ml of distilled water, and the mixture was subjected to colorimetry at a wavelength of 228 nm.

[2] = test system: hypertensive reaction by angiotensin I; assay: Effect against hypertensive activity of angiotensin I in rats; format: in vivo; details: 300 μg/kg i.v., rat, corrected by angiotensin II response
Protocol: Male rats (Sprague-Awley) weighing 300 to 400 g which were fed under free access to drinking water and feed were used as experimental animals. The rats were anesthetized with intraperitoneal administration of pentobarbital sodium (50 mg/kg) on the day before the test day, and a polyethylene tube was inserted into each of the femoral artery for measurement of blood pressure and the femoral vein for injection of angiotensin I and II. And the tubes were fixed.
On the test day, an average blood pressure in the control phase was measured by an electric hemodynamometer (MPU-0.5-290-0-III model, manufactured by NEC-Sanei, Japan) and recorded by a polygraph (NEC-Sanei, Tupe 365, or Nippon Kohden Type RM-45), and thereafter, angiotensin I and then angiotensin II were injected through the femoral vein at a dose of 300 ng/kg and 100 ng/kg, respectively, to measure the hypertensive activity. Then, 300 μg/kg of the compound of the present invention was administered intravenously as an isotonic saline solution, and 5, 10, 30, 60, 90 and 120 minutes after the administration, angiotensin I and II were injected repeatedly to trace hypertensive reactions. In calculating the percent inhibition to the hypertensive activity of angiotensin I, the percent inhibitory value was corrected based on the variation with time in the hypertensive reaction by angiotensin II.

[3] = 5 min. after the administration
[4] = 10 min. after the administration
[5] = 30 min. after the administration
[6] = 60 min. after the administration
[7] = 90 min. after the administration
[8] = 120 min. after the administration

Row | inhibition at 0.1 µM [1] | Structure (SMILES) | Inhibition against hypertensive reaction by angiotension I, % [2, 3] | Inhibition against hypertensive reaction by angiotension I, % [2, 4] | Inhibition against hypertensive reaction by angiotension I, % [2, 5] | Inhibition against hypertensive reaction by angiotension I, % [2, 6] | Inhibition against hypertensive reaction by angiotension I, % [2, 7] | Inhibition against hypertensive reaction by angiotension I, % [2, 8]
1 | 92% | O=C(O)CN1C(=O)[C@@H](N[C@@H](CCCCN2CCCCC2)C(=O)O)CSc2ccccc21 [Example 82, 3(R)-[1(S)-carboxy-5-piperidinopentyl]amino-4-oxo-2,3,4,5-tetrahydro-1,5-benzothiazepine-5-acetic acid] | – | – | – | – | – | –
2 | 92% | O=C(O)CN1C(=O)[C@@H](N[C@@H](CCCC2CCNCC2)C(=O)O)CSc2ccccc21 [Example 91, 3(R)-[1(S)-carboxy-4-(4-piperidyl)butyl]amino-4-oxo-2,3,4,5-tetrahydro-1,5-benzothiazepine-5-acetic acid] | – | – | – | – | – | –
3 | 98% | O=C(O)CN1C(=O)[C@@H](N[C@@H](CCCCC2CCNCC2)C(=O)O)CSc2ccccc21 [Example 95, 3(R)-[1(S)-carboxy-5-(4-piperidyl)pentyl]amino-4-oxo-2,3,4,5-tetrahydro-1,5-benzothiazepine-5-acetic acid] | 96% | 94% | 99% | 89% | 96% | 91%
4 | 98% | O=C(O)CN1C(=O)[C@@H](N[C@@H](CCCCCC2CCNCC2)C(=O)O)CSc2ccccc21 [Example 98, 3(R)-[1(S)-carboxy-6-(4-piperidyl)hexyl]amino-4-oxo-2,3,4,5-tetrahydro-1,5-benzothiazepine-5-acetic acid] | 100% | 100% | 100% | 100% | 95% | 79%
5 | 98% | O=C(O)CN1C(=O)[C@@H](N[C@@H](CCCCCCC2CCNCC2)C(=O)O)CSc2ccccc21 [Example 100, 3(R)-[1(S)-carboxy-7-(4-piperidyl)heptyl]amino-4-oxo-2,3,4,5-tetrahydro-1,5-benzothiazepine-5-acetic acid] | – | – | – | – | – | –

Continued, compound first:

Row | Structure (SMILES) | inhibition at 0.1 µM [1] | Inhibition against hypertensive reaction by angiotension I, % [2, 3] | Inhibition against hypertensive reaction by angiotension I, % [2, 4] | Inhibition against hypertensive reaction by angiotension I, % [2, 5] | Inhibition against hypertensive reaction by angiotension I, % [2, 6] | Inhibition against hypertensive reaction by angiotension I, % [2, 7] | Inhibition against hypertensive reaction by angiotension I, % [2, 8]
6 | O=C(O)CN1C(=O)[C@@H](N[C@@H](CCC2CCNCC2)C(=O)O)CSc2ccccc21 [Example 73, 3(R)-[1(S)-carboxy-3-(4-piperidyl)propyl]amino-4-oxo-2,3,4,5-tetrahydro-1,5-benzothiazepine-5-acetic acid] | 92% | – | – | – | – | – | –
7 | O=C(O)CN1C(=O)[C@@H](N[C@@H](CCC2CCOCC2)C(=O)O)CSc2ccccc21 [Example 74] | 94% | – | – | – | – | – | –
8 | O=C(O)CN1C(=O)[C@@H](N[C@@H](CCC2CCSCC2)C(=O)O)CSc2ccccc21 [Example 75] | 89% | – | – | – | – | – | –
9 | CCOC(=O)C(CCCC1CCNCC1)NC1CSc2ccccc2N(CC(=O)O)C1=O [Example 90, 3(R)-[1(S)-ethoxycarbonyl-4-(4-piperidyl)butyl]-amino-4-oxo-2,3,4,5-tetrahydro-1,5-berzothiazepine-5-acetic acid.dihydrobromide] | – | 100% | 100% | 100% | 90% | 67% | 62%
